These results are taken from US20110014164A1, “EFFICIENT INDUCTION OF PLURIPOTENT STEM CELLS USING SMALL MOLECULE COMPOUNDS” (PRESIDENT AND FELLOWS OF HARVARD COLLEGE, priority 2008, published 2011).

Each structure is given as a SMILES string.

Experiment [1] concerns uninfected MEFs. As to the kind of experiment: Microarray analysis on uninfected MEFs treated with VPA. The class given is cell-based, mouse. The source says: (a) Genes that were specifically expressed in ES cells and MEFs (>10 fold difference) were selected, and scatter plot was generated to visualize the effect of VPA treatment on the expression of these genes. Each blue dots represent one gene, and the position of the blue dot indicate the relative expression level, the average signal (AVE_signal), in MEFs treated with VPA versus untreated. The thick red line indicates identical expression levels. The two adjacent red lines indicate positions where VPA treatment causes a two fold up or down-regulation of the gene expression.
(b) Examples of the relative levels of expression of ES cell-specific transcripts (Rex3 and Zfp7) in ES cells, iPS-m cells, untreated MEFs and MEFs treated with VPA.
(c) Examples of the relative levels of expression of MEF-specific transcripts (Aspn and Meox2) in ES cells, iPS-m cells, untreated MEFs and MEFs treated with VPA.
Therefore, VPA partially reprograms MEFs towards more ES cell-like.
For transcriptional analysis, total RNA was isolated from cells cultured in 6 well dishes using RNeasy Mini Kit and QlAshredder from Qiagen. Biotinylated antisense RNA were amplified using Illumina Total Prep RNA amplification Kit from Ambion, hybridized to Illumina Whole-Genome Expression BeadChips (MouseRef-8) and analyzed by Illumina Beadstation 500. All samples were prepared in two to three biological repeats. Data were analyzed using the Beadstudio software provided by Illumina.

Experiment [2] has as its system MEFs infected with the four factors (Oct4, Sox2, Klf4 and c-Myc). In words: GFP positive iPS colony number in 4-factor infected MEFs. The class given is cell-based, mouse. How it is done: FIG. 1(c) Representative pictures at 11 days post-infection showing a significant increase of GFP positive iPS colonies in infected MEFs with VPA treatment compared to non-treated control.
Consistent with the FACS data, GFP positive iPS colonies emerge sooner and in greater numbers with VPA treatment. […] GFP positive colonies only start to emerge after 10 days post-infection in untreated cells.
For the generation of mouse iPS cells, infected MEFs were cultured in mouse ES cell media until iPS colonies were ready to be picked. In some experiments, knockout serum replacement was used instead of the Hyclone FBS in the mouse ES cell media, which appeared to accelerate the reprogramming process, consistent with a recent report^26. Chemical treatment started 1 or 2 days post-infection and lasted for a week in general. iPS colonies were picked between 9-21 days post-infection based on GFP expression and colony morphology. The picked colonies were then expanded and maintained on irradiated MEF feeder layers in mouse ES cell media.

Experiment [3] deals with human BJ and NHDF cells infected by Oct4 and Sox2. As to the kind of experiment: iPS induction in 2-factor (Oct4, Sox2) infected human fibroblasts. To be noted: both with VPA treatment. The class given is cell-based. The source says:
b. In the published reprogramming protocol, infected human fibroblasts are typically cultured in fibroblast media first, then reseeded on feeders and switched to hES cell media about a week post-infection. In the modified protocol, human fibroblasts were replated immediately after infection, treated with VPA in hES media, and subsequently cultured in hES media.
c. The efficiency of iPS colony induction by 3 factors (Oct4, Sox2 and Klf4) and 2 factors (Oct4 and Sox2) with VPA treatment are plotted. Each dot represents one experiment; each bar represents the average for each condition.
Encouraged by the more efficient 3-factor reprogramming with VPA treatment, we explored the possibility of eliminating some of the transcription factors. The modified induction method with VPA treatment (FIG. 9b) was applied to human BJ and NHDF cells infected by different 2-factor combinations, and AP^+ iPS colonies were identified about 1 month post-infection in fibroblasts infected by Oct4 and Sox2. Karyotypically normal iPS cell lines (Table 2) were established from 2-factor infected human fibroblasts. On average, between 1 and 5 iPS lines were successfully established out of every 100,000 BJ or NHDF cells infected by Oct4 and Sox2 (FIG. 9c). […] The efficiency of reprogramming by 2 factors, however, was ˜100 fold lower than that by 3 factors both with VPA treatment. […]

Setting [4] is: uninfected MEFs, 2 mM VPA for a week.

As to `CCCC(CCC)C(=O)O` [VPA, valproic acid], the “expression of ES cell-specific genes Rex3 and Zfp7” value in experiment [1] (MEFs treated with VPA versus untreated MEFs) is on record as “up-regulated by more than twenty fold”. Besides, in experiment [1] (VPA treated MEFs versus untreated MEFs), the “expression of MEF-specific genes Aspn and Meox2” value is recorded as “down-regulated by more than twenty fold”. In experiment [1] (setting [4]), the “effect on endogenous c-Myc gene expression” value was “did not have a significant effect”, the “share of the 214 genes down-regulated >10 fold in ES cells that are down-regulated by more than two fold” value stood at 55%, the “share of the 214 genes down-regulated >10 fold in ES cells that are up-regulated by more than two fold” value worked out at 6.2% and the “share of the 968 genes up-regulated >ten fold in ES cells that are down-regulated by more than two fold” value is recorded as 4.5%. For the same compound, the “share of the 968 genes up-regulated >ten fold in ES cells that are up-regulated by more than two fold” value in experiment [1] (setting [4]) worked out at 66%. Moreover, the “average number of GFP positive colonies” value in experiment [2] (8 days post-infection, out of 270,000 cells seeded, no colonies without chemical treatment) amounted to 241 colonies. The “difference in colony number, treated versus non-treated” value in experiment [2] (two weeks post-infection) is “more than 40 fold”. Besides, the “efficiency of reprogramming by 2 factors lower than by 3 factors” value in experiment [3] is on record as about 100 fold.
